What follows are molecules tested against Intermediate conductance calcium-activated potassium channel protein 4 (Homo sapiens, UniProt O15554) (assay: Inhibition of Kca3.1 in human erythrocytes).
Assay type: cell-based

Sequence of Intermediate conductance calcium-activated potassium channel protein 4 (O15554 whole entry): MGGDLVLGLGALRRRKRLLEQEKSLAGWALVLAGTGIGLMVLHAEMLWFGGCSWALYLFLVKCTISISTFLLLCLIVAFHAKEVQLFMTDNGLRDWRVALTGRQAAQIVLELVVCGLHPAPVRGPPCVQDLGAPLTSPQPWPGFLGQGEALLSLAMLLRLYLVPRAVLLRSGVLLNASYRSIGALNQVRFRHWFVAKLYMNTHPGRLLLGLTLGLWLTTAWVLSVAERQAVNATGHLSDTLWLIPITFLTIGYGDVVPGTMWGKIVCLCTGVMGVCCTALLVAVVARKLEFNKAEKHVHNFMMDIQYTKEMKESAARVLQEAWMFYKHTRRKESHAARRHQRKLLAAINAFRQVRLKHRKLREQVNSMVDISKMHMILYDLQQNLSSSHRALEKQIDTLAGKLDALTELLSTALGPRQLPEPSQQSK

In order of falling IC50:
1. COC(=O)N(C[C@@H]1CCCN1)C1(c2ccc(F)c(OC(F)(F)F)c2)CC1  8.7 nM
2. COC(=O)N(CC(C)(C)N)C1(c2ccc(F)c(C(F)(F)F)c2)CC1  8.6 nM
3. COC(=O)N(C[C@H]1CCCN1C)C1(c2ccc(F)c(C(F)(F)F)c2)CC1  8.1 nM

— ChEMBL document CHEMBL4665906, “Novel Potassium Channel Inhibitors” (ACS Med Chem Lett, 2020)
